Experimental data as given in US9056865B2, “Pyridine-2-derivatives as smoothened receptor modulators” (Pfizer Inc., priority 2010, dated 2015).
pIC50: −log10 of the molar value.

How the values were obtained:
human Smo = human Smo (Homo sapiens (Human), UniProt Q99835); test: Smo radioligand competition binding assay; conditions: for inhibition at 0.05 µM: read-out: Smo % inh. @ 0.05 μM
Method in brief: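 Membranes from HEK293 cells expressing surface human Smo 181-781 (40 μg protein/well) incubated 2 h at room temperature with test compound and tritiated Smo antagonist (3 nM), pH 7.5 Tris buffer; filtration and scintillation counting. Non-specific binding defined with 30 μM cold antagonist; IC50 from four-parameter sigmoidal fit.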

Gli-Luc/MEF cells = test: Gli-Luc/MEF assay; format: cell-based, mouse; conditions: Shh-stimulated luciferase, 48 hours
Method in brief: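 Mouse embryonic fibroblasts from Gli-Luc transgenic mice (luciferase under Gli response element) dosed with compounds (final […], 3-fold series), then stimulated with recombinant mouse Shh at final 2 μg/mL. After 48 h at 37 °C, luminescence read by Bright-Glo; IC50 from inhibition of Shh-induced signal.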

Chain of human Smo (Q99835 181-787): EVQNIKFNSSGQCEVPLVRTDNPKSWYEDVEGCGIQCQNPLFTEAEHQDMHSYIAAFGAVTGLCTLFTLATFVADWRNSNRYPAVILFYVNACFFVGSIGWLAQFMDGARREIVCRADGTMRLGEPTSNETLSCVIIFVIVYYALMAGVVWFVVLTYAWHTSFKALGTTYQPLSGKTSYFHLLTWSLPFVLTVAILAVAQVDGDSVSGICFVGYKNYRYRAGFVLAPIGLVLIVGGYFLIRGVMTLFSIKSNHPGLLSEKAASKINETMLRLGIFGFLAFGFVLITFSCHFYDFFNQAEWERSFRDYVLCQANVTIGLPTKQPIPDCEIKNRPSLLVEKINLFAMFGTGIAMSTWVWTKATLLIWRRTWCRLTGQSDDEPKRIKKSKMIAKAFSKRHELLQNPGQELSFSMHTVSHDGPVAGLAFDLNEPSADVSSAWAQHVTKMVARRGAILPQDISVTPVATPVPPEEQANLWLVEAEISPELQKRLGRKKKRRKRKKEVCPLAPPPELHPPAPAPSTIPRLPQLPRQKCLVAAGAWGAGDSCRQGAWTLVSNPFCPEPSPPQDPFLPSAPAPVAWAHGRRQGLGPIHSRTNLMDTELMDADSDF

Compound | pIC50 (human Smo) | inhibition at 0.05 µM (human Smo; 0.05 μM test compound) | pIC50 (Gli-Luc/MEF cells; Mus musculus, MEF) | Smo % inh. @ 0.05 μM (human Smo; 0.05 μM test compound) | pIC50 (Gli-Luc/MEF cells)
COCC(=O)NC1CCN(c2cc(-c3ncc(C)cc3C)c(Cl)cn2)CC1 [Example A-135, N-[1-(5′-chloro-3,5-dimethyl-2,4′-bipyridin-2′-yl)piperidin-4-yl]-2-methoxyacetamide] | 7.40 | 94% | 8.12 |  | 
COCCS(=O)(=O)N1CCN(c2ccc(Cl)c(-c3ccccn3)n2)CC1 [Example A-136, 3-chloro-6-{4-[(2-methoxyethyl)sulfonyl]piperazin-1-yl}-2,2′-bipyridine] | 6.48 | 58.8% | 6.93 |  | 
CS(=O)(=O)NC1CCN(c2ncc(Cl)c(-c3ccccn3)c2F)CC1 [Example A-138, N-(1-(5′-chloro-3′-fluoro-2,4′-bipyridin-2′-yl)piperidin-4-yl)methanesulfonamide] | 7.07 | 80.5% | 7.53 |  | 
Cc1cnc(-c2c(Cl)cnc(N3CCC(NC(=O)CCS(C)(=O)=O)CC3)c2F)c(C)c1 [Example A-139, N-(1-(5′-chloro-3′-fluoro-3,5-dimethyl-2,4′-bipyridin-2′-yl)piperidin-4-yl)-3-(methylsulfonyl)propanamide] | 7.75 | 101% | 8.71 |  | 
Cc1cnc(-c2nc(N3CCC(NC(=O)CO)CC3)ccc2Cl)c(C)c1 [Example A-140, N-[1-(3-chloro-3′,5′-dimethyl-2,2′-bipyridin-6-yl)piperidin-4-yl]-2-hydroxyacetamide] | 7.32 | 92% | 7.71 |  | 
Cc1cnc(-c2ccnc(N3CCN(C(=O)CCS(C)(=O)=O)CC3)c2)c(C)c1 [Example A-141, 1-[4-(3,5-dimethyl-2,4′-bipyridin-2′-yl)piperazin-1-yl]-3-(methylsulfonyl)propan-1-one] | 7.94 | 96.3% | 8.07 |  | 
Cc1cnc(-c2cc(N3CCN(C(=O)CCS(C)(=O)=O)CC3)ncc2F)c(C)c1 [Example A-142, 1-[4-(5′-fluoro-3,5-dimethyl-2,4′-bipyridin-2′-yl)piperazin-1-yl]-3-(methylsulfonyl)propan-1-one] | 7.69 | 92.7% | 7.78 |  | 
Cc1cnc(-c2ccnc(N3CCC(NS(C)(=O)=O)CC3)c2)c(C)c1 [Example A-143, N-[1-(3,5-dimethyl-2,4′-bipyridin-2′-yl)piperidin-4-yl]methanesulfonamide] | 7.91 | 96.3% | 7.98 |  | 
Cc1cc(F)cnc1-c1cc(N2CCC(NC(=O)CCS(C)(=O)=O)CC2)ncc1Cl [Example A-144, N-[1-(5′-chloro-5-fluoro-3-methyl-2,4′-bipyridin-2′-yl)piperidin-4-yl]-3-(methylsulfonyl)propanamide] | 7.53 | 91.3% | 7.78 |  | 
Cc1cc(F)cnc1-c1cc(N2CCC(NC(=O)CN(C)C)CC2)ncc1Cl [Example A-145, N-[1-(5′-chloro-5-fluoro-3-methyl-2,4′-bipyridin-2′-yl)piperidin-4-yl]-N^2,N^2-dimethylglycinamide] | 7.18 | 88.9% | 7.95 |  | 
Cc1cc(F)cnc1-c1cc(N2CCC(NC(=O)CC(C)(C)O)CC2)ncc1Cl [Example A-146, N-[1-(5′-chloro-5-fluoro-3-methyl-2,4′-bipyridin-2′-yl)piperidin-4-yl]-3-hydroxy-3-methylbutanamide] | 7.28 | 87.4% | 7.68 |  | 
Cc1ccc(-c2nc(N3CCN(C(=O)CCS(C)(=O)=O)CC3)ccc2Cl)nc1 [Example A-147, 1-[4-(3-chloro-5′-methyl-2,2′-bipyridin-6-yl)piperazin-1-yl]-3-(methylsulfonyl)propan-1-one] |  | 94.7% | 7.84 |  | 
Cc1cc(F)cnc1-c1cc(N2CCC(NS(=O)(=O)CCO)CC2)ncc1Cl [Example A-149, N-[1-(5′-chloro-5-fluoro-3-methyl-2,4′-bipyridin-2′-yl)piperidin-4-yl]-2-hydroxyethanesulfonamide] | 7.68 | 90.6% | 8.00 |  | 
Cc1cc(F)cnc1-c1cc(N2CCN(S(=O)(=O)CCO)CC2)ncc1Cl [Example A-150, 2-{[4-(5′-chloro-5-fluoro-3-methyl-2,4′-bipyridin-2′-yl)piperazin-1-yl]sulfonyl}ethanol] | 7.09 | 76.9% | 7.53 |  | 
Cc1cc(F)cnc1-c1cc(N2CCN(C(=O)CCS(C)(=O)=O)CC2)ncc1Cl [Example A-151, 1-[4-(5′-chloro-5-fluoro-3-methyl-2,4′-bipyridin-2′-yl)piperazin-1-yl]-3-(methylsulfonyl)propan-1-one] |  | 101% | 8.06 |  | 
Cc1cc(F)cnc1-c1cc(N2CCN(S(=O)(=O)CC(C)(C)O)CC2)ncc1Cl [Example A-152, 1-{[4-(5′-chloro-5-fluoro-3-methyl-2,4′-bipyridin-2′-yl)piperazin-1-yl]sulfonyl}-2-methylpropan-2-ol] |  | 95.9% | 7.95 |  | 
Cc1cc(F)cnc1-c1cc(N2CCC(NS(=O)(=O)CC(C)(C)O)CC2)ncc1Cl [Example A-153, N-[1-(5′-chloro-5-fluoro-3-methyl-2,4′-bipyridin-2′-yl)piperidin-4-yl]-2-hydroxy-2-methylpropane-1-sulfonamide] | 7.97 | 96.4% | 8.33 |  | 
Cc1cc(F)cnc1-c1nc(N2CCC(NS(C)(=O)=O)CC2)ccc1Cl [Example A-154, N-[1-(3-chloro-5′-fluoro-3′-methyl-2,2′-bipyridin-6-yl)piperidin-4-yl]methanesulfonamide] | 7.53 | 94.3% | 7.40 |  | 
COCCS(=O)(=O)N1CCN(c2cc(-c3ncc(C)cc3C)ccn2)CC1 [Example A-155, 2′-{4-[(2-methoxyethyl)sulfonyl]piperazin-1-yl}-3,5-dimethyl-2,4′-bipyridine] | 7.01 | 77.1% | 7.35 |  | 
Cc1cnc(-c2ccnc(N3CCN(C(=O)CN4C[C@@H](C)O[C@@H](C)C4)CC3)c2)c(C)c1 [Example A-156, 1-[4-(3,5-dimethyl-2,4′-bipyridin-2′-yl)piperazin-1-yl]-2-[(2R,6S)-2,6-dimethylmorpholin-4-yl]ethanone] | 7.92 | 102% | 8.18 |  | 
Cc1cnc(-c2ccnc(N3CCN(C(=O)CN4CCOCC4)CC3)c2)c(C)c1 [Example A-157, 1-[4-(3,5-dimethyl-2,4′-bipyridin-2′-yl)piperazin-1-yl]-2-(morpholin-4-yl)ethanone] | 7.83 | 101% | 8.45 |  | 
N-[(3-endo)-8-(5′-chloro-3-methyl-2,4′-bipyridin-2′-yl)-8-azabicyclo[3.2.1]oct-3-yl]methanesulfonamide [Example A-124] | 7.00 |  |  | 79.9% | 7.60
